Patent US12570697B2, “Cyclic peptide useful in the treatment of cancer” (Syntherix Limited, priority 2019, dated 2026)
Entries after “also recorded” stand apart in the source; their conditions may differ. Square brackets hold non-standard residues; d marks the D form. Sar = CNCC(=O)O

Tests used:
[1] = tested on: human non-small cell lung cancer cells (NCIH-460); experiment: killing of NCIH-460 cells by CLIPS-cyclised peptides of different warhead length (Table 1); format: cell-based
Protocol: The inventor undertook testing of the effect of various peptides which were cyclised using CLIPS technology on the killing of human non-small cell lung cancer cells (NCIH-460) in vitro. For each of the peptides, between two and four isomer fractions were received, giving a total of 12 peptide entities tested.
The following warhead lengths, obtained by adding flanking sarcosine residues, were tested: […]

NCI-H460 cells = experiment: viability assay of CLIP cyclised peptides on NCI-H460 cells (Example 3, Table 2); format: cell-based, human; conditions: for % inhibition at 300 μM: 96 h; for cytotoxic activity against NCIH460 cells (in words): with and without Nanocin-PRO
Protocol: The following protocol was used: • 1) NCI-H460 cells were grown in Ham's F12 media supplemented with 10% FBS. • 2) Cells were harvested and seeded into 96-well plates at 500 cells per well. • 3) Peptides were diluted 1:2 from DMSO stock solutions to generate a 9-point dose range from a top concentration of 300 μM. Final DMSO concentration was constant at 1% (v/v). • 4) In line with the supplied Nanocin-PRO protocol, diluted peptides were incubated with Nanocin-PRO in media for 20 minutes prior to addition to cells. Nanocin-PRO was used at a final assay concentration of 0.2 μl per well. • 5) Cells were grown in the presence of peptide for 96 hours at 37° C., 5% CO2 in a humidified atmosphere. • 6) After 96 h, Alamar blue 10% (v/v) was added, incubated for a further 4 h and fluorescent product detected using a BMG FLUOstar plate reader. • 7) Media only background readings were subtracted before data was analysed using a 4-parameter logistic equation in GraphPad Prism.
Viability assays of the CLIP cyclised peptides were performed to examine the effect of four HILRa clipped peptides on the viability of NCIH460 cells (up to three isomers for each of the peptides). […] Results for HILRa 16A, 16B, 16C and HILRa 17A, 17B and 17C are depicted in FIG. 2.
Assays were performed in the presence and absence of the peptide transfection reagent Nanocin-PRO.

## Ac-C[Sar]PRGPKP[Sar]C-NH2 (CXPRGPKPXC; N-acetyl; C-amide; sarcosines; HILRa-CL-08 Synthesized; Sar (2)..(2) X = Sarcosine; Sar (9)..(9) X = Sarcosine)
[1]; 0.2 μl Nanocin-PRO per well
  % inhibition at 1 mM: 3.2%
[1]; No Nanocin-PRO
  % inhibition at 1 mM: 0.0%

## Ac-CDacHcaSarProHcaNapC-NH2 [HILRa CL-14-B]
NCI-H460 cells; 0.2 μl Nanocin-PRO per well
  % inhibition at 300 μM: 6.8%
NCI-H460 cells; No Nanocin-PRO
  % inhibition at 300 μM: 5.8%
NCI-H460 cells
  cytotoxic activity against NCIH460 cells (in words): low detectable cancer cell-necrotic activity

## Ac-C[Sar]PKGPRP[Sar]C-NH2 (CXPKGPRPXC; N-acetyl; C-amide; sarcosines; HILRa-CL-05 Synthesized; Sar (2)..(2) X = Sarcosine; Sar (9)..(9) X = Sarcosine)
[1]; 0.2 μl Nanocin-PRO per well
  % inhibition at 1 mM: 1.1%
[1]; No Nanocin-PRO
  % inhibition at 1 mM: 0.0%

## COc1ccc2c(C[C@@H]3NC(=O)[C@@H](NC(C)=O)CSCc4cccc(c4)CSC[C@@H](C(N)=O)NC(=O)CC(c4ccc5ccccc5c4)NC(=O)[C@H](CCCNC(=N)N)NC(=O)CC(c4ccc5ccccc5c4)NC(=O)CN(C)C(=O)[C@H](CCCNC(=N)N)NC3=O)cc(=O)oc2c1 (single isomer, unassigned) [HILRa CL-17-A, Ac-C[Dac]R[Sar][Nap]R[Nap]C-NH2]
NCI-H460 cells; 0.2 μl Nanocin-PRO per well
  % inhibition at 300 μM: 98.7%
NCI-H460 cells; No Nanocin-PRO
  % inhibition at 300 μM: 90.3%

## Ac-CDacHcaSarProHcaNapC-NH2 [HILRa CL-14-A]
NCI-H460 cells; 0.2 μl Nanocin-PRO per well
  % inhibition at 300 μM: 9.9%
NCI-H460 cells; No Nanocin-PRO
  % inhibition at 300 μM: 10.5%
NCI-H460 cells
  cytotoxic activity against NCIH460 cells (in words): low detectable cancer cell-necrotic activity

## Ac-CPKGPRPC-NH2 [HILRa-CL-04]
[1]; 0.2 μl Nanocin-PRO per well
  % inhibition at 1 mM: 8.5%
[1]; No Nanocin-PRO
  % inhibition at 1 mM: 0.0%

## Ac-CPKGPKPC-NH2 [HILRa-CL-10]
[1]; 0.2 μl Nanocin-PRO per well
  % inhibition at 1 mM: 0.8%
[1]; No Nanocin-PRO
  % inhibition at 1 mM: 2.2%

## Ac-CDacHcaSarNapHcaNapC-NH2 [HILRa CL-16-C]
NCI-H460 cells; 0.2 μl Nanocin-PRO per well
  % inhibition at 300 μM: 0.5%
NCI-H460 cells; No Nanocin-PRO
  % inhibition at 300 μM: 26.9%
NCI-H460 cells
  cytotoxic activity against NCIH460 cells (in words): completely removed the cell killing effect; also recorded: low detectable cancer cell-necrotic activity

## COc1ccc2c(C[C@@H]3NC(=O)[C@@H](NC(C)=O)CSCc4cccc(c4)CSC[C@@H](C(N)=O)NC(=O)CC(c4ccc5ccccc5c4)NC(=O)[C@H](CCCNC(=N)N)NC(=O)C4N(CCC4(C)C)C(=O)CN(C)C(=O)[C@H](CCCNC(=N)N)NC3=O)cc(=O)oc2c1 (single isomer, unassigned) [HILRa CL-15-B, Ac-C[Dac]R[Sar][dmPro]R[Nap]C-NH2]
NCI-H460 cells; 0.2 μl Nanocin-PRO per well
  % inhibition at 300 μM: 87.5%
NCI-H460 cells; No Nanocin-PRO
  % inhibition at 300 μM: 20.2%

## Ac-C[Sar][Sar]PKGPKP[Sar][Sar]C-NH2 (CXXPKGPKPXXC; N-acetyl; C-amide; sarcosines; HILRa-CL-12 Synthesized; Sar (2)..(2) X = Sarcosine; Sar (3)..(3) X = Sarcosine; Sar (10)..(10) X = Sarcosine; Sar (11)..(11) X = Sarcosine)
[1]; 0.2 μl Nanocin-PRO per well
  % inhibition at 1 mM: 0.8%
[1]; No Nanocin-PRO
  % inhibition at 1 mM: 0.0%

## Ac-CPRGPKPC-NH2 [HILRa-CL-07]
[1]; 0.2 μl Nanocin-PRO per well
  % inhibition at 1 mM: 1.5%
[1]; No Nanocin-PRO
  % inhibition at 1 mM: 0.0%

## COc1ccc2c(C[C@@H]3NC(=O)[C@@H](NC(C)=O)CSCc4cccc(c4)CSC[C@@H](C(N)=O)NC(=O)CC(c4ccc5ccccc5c4)NC(=O)[C@H](CCCNC(=N)N)NC(=O)C4N(CCC4(C)C)C(=O)CN(C)C(=O)[C@H](CCCNC(=N)N)NC3=O)cc(=O)oc2c1 (single isomer, unassigned) [HILRa CL-15-C, Ac-C[Dac]R[Sar][dmPro]R[Nap]C-NH2]
NCI-H460 cells; 0.2 μl Nanocin-PRO per well
  % inhibition at 300 μM: 88.5%
NCI-H460 cells; No Nanocin-PRO
  % inhibition at 300 μM: 23.8%

## Ac-CDacHcaSarProHcaNapC-NH2 [HILRa-CL-14]
NCI-H460 cells
  cytotoxic activity against NCIH460 cells (in words): negligible activity

## Ac-C[Sar][Sar]PRGPKP[Sar][Sar]C-NH2 (cysteine pairing not given here) [HILRa-CL-09]
[1]; 0.2 μl Nanocin-PRO per well
  % inhibition at 1 mM: 3.0%
[1]; No Nanocin-PRO
  % inhibition at 1 mM: 1.1%
